Assay results reported in patent US20060019971A1, “Treatment of cardiovascular disease with inhibitors of p38 kinase” (priority 2003, published 2006).
“Also recorded” adds a separate entry of the source.

Columns and labels:
COX-2 mRNA in HPBMCs = experiment: COX-2 gene expression in HPBMCs, real-time PCR; format: cell-based, human; conditions: 6 hours
Description: (§1) 5×10^6 HPBMCs were plated in 6-well. After 1 hour medium was removed and cells were treated with vehicle or 1 μM p38 inhibitor in RPMI 1640 medium. After 1 hour cells were stimulated with 10% FCS only or 10 μg/ml CRP plus 10% FCS. After 6 hours RNA was extracted from the cells and COX-2 gene expression level was determined by real-time PCR as described in the Experimental section.
Cryopreserved human peripheral blood monocytes (HPBMCs, from Biowitker, Walkersvill, Md.) were thawed and washed twice in RPMI 1640. Cells were plated in tissue culture plates and incubated in 5% CO2 at 37 C. After 1 hr media were removed and cells were treated with various treatments. After 2 to 20 hours conditioned media and/or cell lysates were collected for the analyses of secreted cytokines, protein or mRNA expression. […]
(§2) RNA was extracted from the cells using Qiagen RNA extraction kit according to the manufacturer's instruction. The expression of pro-inflammatory genes IL-1β, IL-6, IL-8, TNFα, COX-2, ET-1, TF were assessed by real-time PCR. […]
(§3) Real-time RT-PCR was performed in a two-step manner. cDNA synthesis and real-time detection were carried out in a PTC-100™ Thermal Cycler (MJ Research Inc, Waltham, Mass.) and an ABI Prism™ 7700 Sequence Detection System (Applied Biosystems, Foster City, Calif.), respectively. […] Relative quantitation of gene expression was performed using the relative standard curve method. […]

p38 MAP kinase = target: T1, p38 MAP kinase (Homo sapiens, UniProt Q16539); experiment: p38 MAP kinase phosphorylation assay (similar to Kumar); format: biochemical; conditions: assay similar to the phosphorylation assay (Kumar)
T1 construct: expressed in transfected cells; kinase immunoprecipitated from lysates
T1 sequence (Q16539 whole entry): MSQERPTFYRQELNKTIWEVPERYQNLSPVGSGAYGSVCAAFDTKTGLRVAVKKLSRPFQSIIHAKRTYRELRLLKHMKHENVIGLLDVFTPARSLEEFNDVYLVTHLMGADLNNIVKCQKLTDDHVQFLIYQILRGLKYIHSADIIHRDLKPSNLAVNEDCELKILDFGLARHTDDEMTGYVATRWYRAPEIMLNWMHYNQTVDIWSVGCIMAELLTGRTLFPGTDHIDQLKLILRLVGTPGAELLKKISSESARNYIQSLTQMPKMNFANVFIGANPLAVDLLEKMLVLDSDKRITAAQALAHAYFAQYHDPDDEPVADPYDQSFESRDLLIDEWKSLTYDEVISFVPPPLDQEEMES
Description: Alternative assays involving in vitro analysis of potential inhibitors include those where cells (HeLa) transfected with DNA coding for relevant kinases can be activated with substances such as sorbitol, IL-1, TNF, or PMA (phorbol myristate acetate). After immunoprecipitation of cell lysates, equal aliquots of immune complexes of the kinases are pre-incubated for an adequate time with a specific concentration of the potential inhibitor followed by addition of kinase substrate buffer mix containing labeled ATP and GST-ATF2 or MBP. After incubation, kinase reactions are ceased by the addition of SDS loading buffer. Phosphorylated substrate is resolved through SDS-PAGE and visualized and quantitated in a phosphorimager. Both p38 regulation, in terms of phosphorylation, and IC50 values can be determined by quantitation. See, for example Kumar,S., McDonnell, P., Gum, R., Hand, A., Lee, J., and Young, P. (1997) Biochem. Biophys. Res. Commun. 235, 533-538.

ET-1 mRNA in HPBMCs = experiment: ET-1 gene expression in HPBMCs, real-time PCR; format: cell-based, human; conditions: 6 hours
Description: as §1, with “P38 INHIBITOR” for “p38 inhibitor”, “ET-1” for “COX-2”
Cryopreserved human peripheral blood monocytes (HPBMCs, from Biowitker, Walkersvill, Md.) were thawed and washed twice in RPMI 1640. Cells were plated in tissue culture plates and incubated in 5% CO2 at 37 C. After 1 hr media were removed and cells were treated with various treatments. After 2 to 20 hours conditioned media and/or cell lysates were collected for the analyses of secreted cytokines, protein or mRNA expression. 10 μg/ml of purified human CRP (Calbiochem, San Diego, Calif.) was used in most of the treatments. In some experiments fetal calf serum (FCS from ATCC) was added to a final concentration of 10% together with CRP. In the examples provided herein, including those assessing the effects of p38 antagonism, cells were pre-treated with SD, a p38 small molecule inhibitor (Compound 162 in Table A) for 1 hour prior to CRP treatment as described above. In a parallel series of experiments, the effect of vehicle (DMSO) was tested. For TaqMan analyses of various gene expression cells were lysed in ice-cold RLT lysis buffer (Qiagen, Valencia, Calif.) and the lysates were kept in −80° C. until the analyses. […]
as §2, §3

TNFα mRNA in HPBMCs = experiment: TNFα gene expression in HPBMCs, real-time PCR; format: cell-based, human; conditions: 2 hours
Description: 5×10^6 HPBMCs were plated in 6-well. After 1 hour medium was removed and cells were treated with vehicle or 1μM p38 inhibitor in RPMI 1640 medium. After 1 hour cells were stimulated with 10% FCS only or 10 μg/ml CRP plus 10% FCS. After 6 hours conditioned medium was collected and IL-1b and TNFa levels were determined by ELISA. […] 5×10^6 HPBMCs were plated in 6-well. After I hour medium was removed and cells were treated with vehicle or […] p38 inhibitor in RPMI 1640 medium. After 1 hour cells were stimulated with 10% FCS only or 10 μg/ml CRP plus 10% FCS. After 2 hours RNA was extracted from the cells and TNFa (c) and IL-1b (d) expression levels were determined by real-time PCR as described in the Experimental section. […]
as §2, §3

[1] = 1 μM SD pre-treatment, listed as SD

C[C@@H]1CN(Cc2ccc(F)cc2)[C@@H](C)CN1C(=O)c1cc2c(C(=O)C(=O)N(C)C)c[nH]c2cc1Cl [Compound 162]
inhibition of CRP-invoked COX-2 mRNA expression (COX-2 mRNA in HPBMCs; [1]): almost completely blocked; also recorded: almost completely inhibited | inhibition of FCS induced COX-2 mRNA (COX-2 mRNA in HPBMCs; 1 μM SD): completely inhibited | p38 MAP kinase activity (p38 MAP kinase): exhibit p38 MAP kinase activity | inhibition of CRP-invoked ET-1 mRNA expression (ET-1 mRNA in HPBMCs; [1]): almost completely blocked; also recorded: almost completely inhibited | inhibition of FCS induced ET-1 mRNA (ET-1 mRNA in HPBMCs; 1 μM SD): completely inhibited | inhibition of CRP augmented TNFα transcription (TNFα mRNA in HPBMCs; 1 μM SD): completely attenuated | FCS induced TNFα transcription, sensitivity to SD treatment (TNFα mRNA in HPBMCs; 10% FCS): sensitive
